Patent US12065442B2, “Tropomyosin receptor kinase (TRK) degradation compounds and methods of use” (Cullgen (Shanghai), Inc., priority 2018, dated 2024)
Entries after “also recorded” stand apart in the source; their conditions may differ. Read-outs that look alike come from different tables or passages of the source.

Test system: KM12 cells
Test: Cell viability assay (CellTiter-Glo) in KM12 cells
Assay type: cell-based
Details: for IC50: Homo sapiens, 72 h, KM12 cell viability, CellTiter-Glo, 3 days, read-out: IC50

| SMILES | IC50 (Table 3) [µM] | IC50 (Table 2) [µM] | also measured |
| --- | --- | --- | --- |
| O=C(CN1CCN(c2cccc(-c3cnc4ccc(N5CCC[C@@H]5c5cccc(F)c5)nn34)n2)CC1)NCCCCNc1cccc2c1C(=O)N(C1CCC(=O)NC1=O)C2=O (stereo partly drawn) [TR-107, N-(4-((2-(2,6-dioxopiperidin-3-yl)-1,3-dioxoisoindolin-4-yl)amino)butyl)-2-(4-(6-(6-((R)-2-(3-fluorophenyl)pyrrolidin-1-yl)imidazo[1,2-b]pyridazin-3-yl)pyridin-2-yl)piperazin-1-yl)acetamide] | 0.0084 |  |  |
| Cn1c(=O)n(C2CCC(=O)NC2=O)c2cccc(OCCN3CCN(c4cccc(-c5cnc6ccc(N7CCC[C@@H]7c7cccc(F)c7)nn56)n4)CC3)c21 (stereo partly drawn) [TR-244, 3-(4-(2-(4-(6-(6-((R)-2-(3-fluorophenyl)pyrrolidin-1-yl)imidazo[1,2-b]pyridazin-3-yl)pyridin-2-yl)piperazin-1-yl)ethoxy)-3-methyl-2-oxo-2,3-dihydro-1H-benzo[d]imidazol-1-yl)piperidine-2,6-dione] |  |  | IC50 (Table 4): 0.298 µM |
| O=C1CCC(N2C(=O)c3ccc(CCC(=O)N4CCN(c5cccc(-c6cnc7ccc(N8CCC[C@@H]8c8cccc(F)c8)nn67)n5)CC4)cc3C2=O)C(=O)N1 (stereo partly drawn) [TR-194, 2-(2,6-Dioxopiperidin-3-yl)-5-(3-(4-(6-(6-((R)-2-(3-fluorophenyl)pyrrolidin-1-yl)imidazo[1,2-b]pyridazin-3-yl)pyridin-2-yl)piperazin-1-yl)-3-oxopropyl)isoindoline-1,3-dione] | 0.0074 |  |  |
| O=C1CCC(N2C(=O)c3ccc(CN4CC(N5CCN(c6cccc(-c7cnc8ccc(N9CCC[C@@H]9c9cccc(F)c9)nn78)n6)CC5)C4)cc3C2=O)C(=O)N1 (stereo partly drawn) [TR-237, 2-(2,6-dioxopiperidin-3-yl)-5-((3-(4-(6-(6-((R)-2-(3-fluorophenyl)pyrrolidin-1-yl)imidazo[1,2-b]pyridazin-3-yl)pyridin-2-yl)piperazin-1-yl)azetidin-1-yl)methyl)isoindoline-1,3-dione] |  |  | IC50 (Table 4): 0.138 µM |
| Cc1ncsc1-c1ccc(CNC(=O)[C@@H]2C[C@@H](O)CN2C(=O)[C@@H](NC(=O)CCOCCC(=O)N2CCN(c3ccc(C(=O)Nc4n[nH]c5ccc(Cc6cc(F)cc(F)c6)cc45)c(NC4CCOCC4)c3)CC2)C(C)(C)C)cc1 [CPD-048, (2S,4R)-1-((S)-2-(3-(3-(4-(4-((5-(3,5-Difluorobenzyl)-1H-indazol-3-yl)carbamoyl)-3-((tetrahydro-2H-pyran-4-yl)amino)phenyl)piperazin-1-yl)-3-oxopropoxy)propanamido)-3,3-dimethylbutanoyl)-4-hydroxy-N-(4-(4-methylthiazol-5-yl)benzyl)pyrrolidine-2-carboxamide] |  | > 1 |  |
| O=C1CCC(N2C(=O)c3ccc(NCCCCCCCC(=O)N4CCN(c5cccc(-c6cnc7ccc(N8CCC[C@@H]8c8cccc(F)c8)nn67)n5)CC4)cc3C2=O)C(=O)N1 (stereo partly drawn) [TR-118, 2-(2,6-Dioxopiperidin-3-yl)-5-((8-(4-(6-(6-((R)-2-(3-fluorophenyl)pyrrolidin-1-yl)imidazo[1,2-b]pyridazin-3-yl)pyridin-2-yl)piperazin-1-yl)-8-oxooctyl)amino)isoindoline-1,3-dione] | 0.0063 |  |  |
| O=C1CCC(N2C(=O)c3cccc(NCCOCCOCCOCCC(=O)N4CCN(c5cccc(-c6cnc7ccc(N8CCC[C@@H]8c8cccc(F)c8)nn67)n5)CC4)c3C2=O)C(=O)N1 (stereo partly drawn) [CPD-010, 2-(2,6-Dioxopiperidin-3-yl)-4-((2-(2-(2-(3-(4-(6-(6-((R)-2-(3-fluorophenyl)pyrrolidin-1-yl)imidazo[1,2-b]pyridazin-3-yl)pyridin-2-yl)piperazin-1-yl)-3-oxopropoxy)ethoxy)ethoxy)ethyl)amino)isoindoline-1,3-dione] |  | 0.03 | viability of KM12 cells (500 nM, 12-point 2-fold serial dilution, 3 days (FIG. 4A)): inhibited the viability; also recorded: dose-dependently suppressed viability |
| O=C1CCC(N2C(=O)c3ccc(NCCOCCN4CCN(c5cccc(-c6cnc7ccc(N8CCC[C@@H]8c8cccc(F)c8)nn67)n5)CC4)cc3C2=O)C(=O)N1 (stereo partly drawn) [TR-176, 2-(2,6-Dioxopiperidin-3-yl)-5-((2-(2-(4-(6-(6-((R)-2-(3-fluorophenyl)pyrrolidin-1-yl)imidazo[1,2-b]pyridazin-3-yl)pyridin-2-yl)piperazin-1-yl)ethoxy)ethyl)amino)isoindoline-1,3-dione] | 0.018 |  |  |
| O=C1CCC(N2Cc3cc(NCCN4CCN(c5cccc(-c6cnc7ccc(N8CCC[C@@H]8c8cccc(F)c8)nn67)n5)CC4)ccc3C2=O)C(=O)N1 (stereo partly drawn) [TR-191, 3-(5-((2-(4-(6-(6-((R)-2-(3-fluorophenyl)pyrrolidin-1-yl)imidazo[1,2-b]pyridazin-3-yl)pyridin-2-yl)piperazin-1-yl)ethyl)amino)-1-oxoisoindolin-2-yl)piperidine-2,6-dione] | 0.0054 |  |  |
| Cc1ncsc1-c1ccc(CNC(=O)[C@@H]2C[C@@H](O)CN2C(=O)[C@@H](NC(=O)CCOCCOCCOCCOCCOCCC(=O)N2CCN(c3ccc(C(=O)Nc4n[nH]c5ccc(Cc6cc(F)cc(F)c6)cc45)c(NC4CCOCC4)c3)CC2)C(C)(C)C)cc1 [CPD-043, (2S,4R)-1-((S)-2-(tert-butyl)-22-(4-(4-((5-(3,5-Difluorobenzyl)-1H-indazol-3-yl)carbamoyl)-3-((tetrahydro-2H-pyran-4-yl)amino)phenyl)piperazin-1-yl)-4,22-dioxo-7,10,13,16,19-pentaoxa-3-azadocosanoyl)-4-hydroxy-N-(4-(4-methylthiazol-5-yl)benzyl)pyrrolidine-2-carboxamide] |  | > 1 |  |
| O=C(CN1CCN(c2cccc(-c3cnc4ccc(N5CCC[C@@H]5c5cccc(F)c5)nn34)n2)CC1)NCCNc1ccc2c(c1)C(=O)N(C1CCC(=O)NC1=O)C2=O (stereo partly drawn) [TR-130, N-(2-((2-(2,6-dioxopiperidin-3-yl)-1,3-dioxoisoindolin-5-yl)amino)ethyl)-2-(4-(6-(6-((R)-2-(3-fluorophenyl)pyrrolidin-1-yl)imidazo[1,2-b]pyridazin-3-yl)pyridin-2-yl)piperazin-1-yl)acetamide] | 0.0009 |  |  |
| Cc1ncsc1-c1ccc(CNC(=O)[C@@H]2C[C@@H](O)CN2C(=O)[C@@H](NC(=O)CCCCCCCNC(=O)CN2CCN(c3ccc(C(=O)Nc4n[nH]c5ccc(Cc6cc(F)cc(F)c6)cc45)c(NC4CCOCC4)c3)CC2)C(C)(C)C)cc1 [CPD-061, (2S,4R)-1-((S)-2-(8-(2-(4-(4-((5-(3,5-Difluorobenzyl)-1H-indazol-3-yl)carbamoyl)-3-((tetrahydro-2H-pyran-4-yl)amino)phenyl)piperazin-1-yl)acetamido)octanamido)-3,3-dimethylbutanoyl)-4-hydroxy-N-(4-(4-methylthiazol-5-yl)benzyl)pyrrolidine-2-carboxamide] |  | > 1 |  |
| Cc1ncsc1-c1ccc(CNC(=O)[C@@H]2C[C@@H](O)CN2C(=O)[C@@H](NC(=O)COCC(=O)N2CCN(c3ccc(C(=O)Nc4n[nH]c5ccc(Cc6cc(F)cc(F)c6)cc45)c(NC4CCOCC4)c3)CC2)C(C)(C)C)cc1 [CPD-045, (2S,4R)-1-((S)-2-(2-(2-(4-(4-((5-(3,5-Difluorobenzyl)-1H-indazol-3-yl)carbamoyl)-3-((tetrahydro-2H-pyran-4-yl)amino)phenyl)piperazin-1-yl)-2-oxoethoxy)acetamido)-3,3-dimethylbutanoyl)-4-hydroxy-N-(4-(4-methylthiazol-5-yl)benzyl)pyrrolidine-2-carboxamide] |  | > 1 |  |
| O=C1CCC(N2C[C@H](c3ccc(C#CCN4CCN(c5cccc(-c6cnc7ccc(N8CCC[C@@H]8c8cccc(F)c8)nn67)n5)CC4)cc3)OC2=O)C(=O)N1 (stereo partly drawn) [TR-224, 3-((S)-5-(4-(3-(4-(6-(6-((R)-2-(3-Fluorophenyl)pyrrolidin-1-yl)imidazo[1,2-b]pyridazin-3-yl)pyridin-2-yl)piperazin-1-yl)prop-1-yn-1-yl)phenyl)-2-oxooxazolidin-3-yl)piperidine-2,6-dione] |  |  | IC50 (Table 4): 0.0099 µM |
| O=C(CN1CCN(c2ccc(C(=O)Nc3n[nH]c4ccc(Cc5cc(F)cc(F)c5)cc34)c(NC3CCOCC3)c2)CC1)NCCOCCOCCOCCNc1ccc2c(c1)C(=O)N(C1CCC(=O)NC1=O)C2=O (stereo not shown) [TR-163, N-(5-(3,5-Difluorobenzyl)-1H-indazol-3-yl)-4-(4-(14-((2-(2,6-dioxopiperidin-3-yl)-1,3-dioxoisoindolin-5-yl)amino)-2-oxo-6,9,12-trioxa-3-azatetradecyl)piperazin-1-yl)-2-((tetrahydro-2H-pyran-4-yl)amino)benzamide] | 0.0063 |  |  |
| O=C(CN1CCN(c2ccc(C(=O)Nc3n[nH]c4ccc(Cc5cc(F)cc(F)c5)cc34)c(NC3CCOCC3)c2)CC1)NCCCCCCCNc1ccc2c(c1)C(=O)N(C1CCC(=O)NC1=O)C2=O (stereo not shown) [TR-157, N-(5-(3,5-Difluorobenzyl)-1H-indazol-3-yl)-4-(4-(2-((7-((2-(2,6-dioxopiperidin-3-yl)-1,3-dioxoisoindolin-5-yl)amino)heptyl)amino)-2-oxoethyl)piperazin-1-yl)-2-((tetrahydro-2H-pyran-4-yl)amino)benzamide] | 0.0083 |  |  |
| O=C1CCC(N2C(=O)c3ccc(NCC4CN(c5cccc(-c6cnc7ccc(N8CCC[C@@H]8c8cccc(F)c8)nn67)n5)C4)cc3C2=O)C(=O)N1 (stereo partly drawn) [TR-179, 2-(2,6-Dioxopiperidin-3-yl)-5-(((1-(6-(6-((R)-2-(3-fluorophenyl)pyrrolidin-1-yl)imidazo[1,2-b]pyridazin-3-yl)pyridin-2-yl)azetidin-3-yl)methyl)amino)isoindoline-1,3-dione] | 0.0234 |  |  |
| Cc1ncsc1-c1ccc(CNC(=O)[C@@H]2C[C@@H](O)CN2C(=O)[C@@H](NC(=O)CCCCCCC(=O)N2CCN(c3cccc(-c4cnc5ccc(N6CCC[C@@H]6c6cccc(F)c6)nn45)n3)CC2)C(C)(C)C)cc1 [CPD-029, (2S,4R)-1-((S)-2-(8-(4-(6-(6-((R)-2-(3-Fluorophenyl)pyrrolidin-1-yl)imidazo[1,2-b]pyridazin-3-yl)pyridin-2-yl)piperazin-1-yl)-8-oxooctanamido)-3,3-dimethylbutanoyl)-4-hydroxy-N-(4-(4-methylthiazol-5-yl)benzyl)pyrrolidine-2-carboxamide] |  | 0.074 |  |
